{"source": "patent US20240148821A1", "about": "“PHARMACEUTICAL USE OF CYCLIC PEPTIDE COMPOUND” (CHUGAI SEIYAKU KABUSHIKI KAISHA, priority 2021, published 2024)", "note": "pIC50: −log10 of the molar value. Numbered stars: 1 amine (or outer) side, 2 acyl side, 3 side chain; on linkers, the order of the positions; unused ones are H or OH. Bridge positions count the residues as written; N and C are the ends. Square brackets hold non-standard residues; d marks the D form. Peptide text beside a SMILES is read from it. * marks the point of attachment. NMeAbu(3,3-F2-piperidino) = CN[C@@H](CCN1CCCC(F)(F)C1)C(=O)O; hPhe(3-Cl-4-CF3) = N[C@@H](CCc1ccc(C(F)(F)F)c(Cl)c1)C(=O)O; hPhe(3-F,4-CF3) = N[C@@H](CCc1ccc(C(F)(F)F)c(F)c1)C(=O)O; NEtPhe(4-Me) = CCN[C@@H](Cc1ccc(C)cc1)C(=O)O; NMedβ3hAla = C[C@H](CC(=O)[*:2])N(C)[*:1]; NMeGly(cPent) = CN[C@H](C(=O)O)C1CCCC1; Phe(3-I) = N[C@@H](Cc1cccc(I)c1)C(=O)O; NMeY = CN[C@@H](Cc1ccc(O)cc1)C(=O)O; NMeCha = CN[C@@H](CC1CCCCC1)C(=O)O; Ala(cPr) = N[C@@H](CC1CC1)C(=O)O; Hyp = O=C(O)[C@@H]1C[C@@H](O)CN1; NMeChg = CN[C@H](C(=O)O)C1CCCCC1; NMeF = CN[C@@H](Cc1ccccc1)C(=O)O; NMeI = CC[C@H](C)[C@H](NC)C(=O)O; NMeD = CN[C@@H](CC(=O)O)C(=O)O; NMeL = CN[C@@H](CC(C)C)C(=O)O; NMePra = C#CC[C@H](NC)C(=O)O; NMeV = CN[C@H](C(=O)O)C(C)C; d(β3hA) = C[C@@H](N)CC(=O)O; Morpholide = C1CN(*)CCO1; NMeA = CN[C@@H](C)C(=O)O; Nle = CCCC[C@H](N)C(=O)O; Piperidide = C1CCN(*)CC1; Pyrrolidide = C1CCN(*)C1; Ac5c = NC1(C(=O)O)CCCC1; Aze = O=C(O)[C@@H]1CCN1; Ac4c = NC1(C(=O)O)CCC1; Sar = CNCC(=O)O", "data": [{"tested_on": "Human pancreatic cancer cell line AsPC-1 (G12D mutation Kras)", "assay": "AsPC-1 cell growth inhibition (AsPC-1 CGI)", "assay_type": "cell-based", "conditions": "read-out: AsPC-1 cell growth inhibition, 50% growth inhibitory concentration (IC50 value); 96 hours, CellTiter-Glo, values classified in ranges", "method": "Test compounds were serially dilated with dimethyl sulfoxide, and 200 nL was then dispensed to a U-bottom 96-well plate using Labcyte Echo. […] The cell suspension was dispensed to a. plate containing a test compound at 100 μL per well and incubated at 37° C. in a 5% carbon dioxide gas incubator. 96 hours later, 80 μL of CellTiter-Glo (Promega) was added to each well and fluorescence was measured.", "values": [{"smiles": "CC[C@H](C)[C@@H]1NC(=O)[C@H](C)N(C)C(=O)C[C@@H](C(=O)N2CCCC2)N(C)C(=O)[C@H](CC(C)C)NC(=O)[C@H](Cc2ccccc2)N(C)C(=O)[C@H](C)NC(=O)[C@H](Cc2cccc(I)c2)NC(=O)CN(C)C(=O)[C@H](Cc2ccc(OC)cc2)N(C)C(=O)[C@@H]2CCN2C(=O)[C@H](C)N(C)C1=O", "note": "[Compound 604] ([NMeA]I[NMeA][Aze][NMeY](Me)[Sar][Phe(3-I)]A[NMeF]L[NMeD]-Pyrrolidide; lactam N-11)", "pIC50": "< 6.30"}, {"smiles": "CC[C@H](C)[C@@H]1NC(=O)[C@H](CC(C)C)N(C)C(=O)C[C@@H](C(=O)N2CCOCC2)N(C)C(=O)[C@H]([C@@H](C)CC)N(C)C(=O)C2(CCCC2)NC(=O)[C@@H]2CCCN2C(=O)[C@H](CCc2ccc(C(F)(F)F)c(Cl)c2)NC(=O)CN(C)C(=O)[C@H](CC2CCCCC2)N(C)C(=O)CN(C)C(=O)CN(C)C1=O", "note": "[Compound 1979] ([NMeL]I[Sar][Sar][NMeCha][Sar][hPhe(3-Cl-4-CF3)]P[Ac5c][NMeI][NMeD]-Morpholide; lactam N-11)", "pIC50": "≥ 7.70"}, {"smiles": "C#CC[C@H]1C(=O)N(C)CC(=O)N[C@@H](CCc2ccc(C(F)(F)F)c(Cl)c2)C(=O)N2CCC[C@H]2C(=O)NC2(CCCC2)C(=O)N(C)[C@@H](C2CCCCC2)C(=O)N(C)[C@H](C(=O)N2CCCCC2)CC(=O)N(C)[C@@H](CC(C)C)C(=O)N[C@@H]([C@@H](C)CC)C(=O)N(C)CC(=O)N(C)CC(=O)N1C", "note": "[Compound 554] ([NMeL]I[Sar][Sar][NMePra][Sar][hPhe(3-Cl-4-CF3)]P[Ac5c][NMeChg][NMeD]-Piperidide; lactam N-11)", "pIC50": "< 6.30"}, {"smiles": "CC(C)C[C@H]1C(=O)N[C@@H](CC2CC2)C(=O)N(C)CC(=O)N(C)CC(=O)N(C)[C@@H](CC2CCCCC2)C(=O)N(C)CC(=O)N[C@@H](CCc2ccc(C(F)(F)F)c(Cl)c2)C(=O)N2CCC[C@H]2C(=O)NC2(CCCC2)C(=O)N(C)[C@@H](C(C)C)C(=O)N(C)[C@H](C(=O)N2CCCCC2)CC(=O)N1C", "note": "[Compound 421] ([NMeL][Ala(cPr)][Sar][Sar][NMeCha][Sar][hPhe(3-Cl-4-CF3)]P[Ac5c][NMeV][NMeD]-Piperidide; lactam N-11)", "pIC50": "< 6.30"}, {"smiles": "CCCC[C@@H]1NC(=O)[C@H](CC(C)C)N(C)C(=O)C[C@@H](C)NC(=O)[C@H](CC(C)C)N(C)C(=O)C2(CCCC2)NC(=O)[C@@H]2CCCN2C(=O)[C@H](CCc2ccc(C(F)(F)F)c(F)c2)NC(=O)CN(C)C(=O)[C@H](CC2CCCCC2)N(C)C(=O)CN(C)C(=O)CN(C)C1=O", "note": "[Compound 1490] (cyclo([Ac5c][NMeL][d(β3hA)][NMeL][Nle][Sar][Sar][NMeCha][Sar][hPhe(3-F,4-CF3)]P))", "pIC50": "< 6.30"}, {"smiles": "CC[C@H](C)[C@@H]1NC(=O)[C@H](CC(C)C)N(C)C(=O)C[C@@H](C(=O)N(C)C)N(C)C(=O)[C@H](C2CCCC2)N(C)C(=O)[C@H](C)NC(=O)[C@H](CCN2CCCC(F)(F)C2)N(C)C(=O)[C@H](CCc2ccc(C(F)(F)F)c(Cl)c2)NC(=O)CN(C)C(=O)[C@H](CC2CCCCC2)N(C)C(=O)[C@@H]2CCN2C(=O)[C@H](C)N(C)C1=O", "note": "[Compound 1081] ([NMeL]I[NMeA][Aze][NMeCha][Sar][hPhe(3-Cl-4-CF3)][NMeAbu(3,3-F2-piperidino)]A[NMeGly(cPent)][NMeD]-NMe2; lactam N-11)", "pIC50": "< 6.30"}, {"smiles": "CCO[C@@H]1C[C@H]2C(=O)NC3(CCC3)C(=O)N(C)[C@@H]([C@@H](C)CC)C(=O)N(C)[C@H](C)CC(=O)N(C)[C@@H](CC(C)C)C(=O)N[C@@H]([C@@H](C)CC)C(=O)N(C)[C@@H](C)C(=O)N3CC[C@H]3C(=O)N(CC)[C@@H](Cc3ccc(C)cc3)C(=O)N(C)CC(=O)N[C@@H](CCc3ccc(C(F)(F)F)c(Cl)c3)C(=O)N2C1", "note": "[Compound 626] (cyclo([Ac4c][NMeI][NMedβ3hAla][NMeL]I[NMeA][Aze][NEtPhe(4-Me)][Sar][hPhe(3-Cl-4-CF3)][Hyp](Et)))", "pIC50": "≥ 7.70"}]}]}
